Results published in publication PMC9609356, “Novel O-Methylglucoside Derivatives of Flavanone in Interaction with Model Membrane and Transferrin” (Membranes, 2022).
Like-named read-outs stand apart in the source and are kept apart here. Each block holds one molecule with its values, some of them ahead of it.

Columns and labels:
Test in all cases: intrinsic tryptophan fluorescence quenching titration (static quenching; Ka, n = […])
Type in all cases: binding
Settings in all cases: read-out: Ka (M^-1) × 10^4 (converted)
[1] = molecular target: T1, human holo-transferrin (HTF) (Homo sapiens, UniProt P02787)
T1 construct: gene TF

[2] = molecular target: T1, human holo-transferrin (HTF); remark: listed apart in the source
[3] = molecular target: T1, human holo-transferrin (HTF); remark: listed apart in the source

T1 sequence (P02787 20-698): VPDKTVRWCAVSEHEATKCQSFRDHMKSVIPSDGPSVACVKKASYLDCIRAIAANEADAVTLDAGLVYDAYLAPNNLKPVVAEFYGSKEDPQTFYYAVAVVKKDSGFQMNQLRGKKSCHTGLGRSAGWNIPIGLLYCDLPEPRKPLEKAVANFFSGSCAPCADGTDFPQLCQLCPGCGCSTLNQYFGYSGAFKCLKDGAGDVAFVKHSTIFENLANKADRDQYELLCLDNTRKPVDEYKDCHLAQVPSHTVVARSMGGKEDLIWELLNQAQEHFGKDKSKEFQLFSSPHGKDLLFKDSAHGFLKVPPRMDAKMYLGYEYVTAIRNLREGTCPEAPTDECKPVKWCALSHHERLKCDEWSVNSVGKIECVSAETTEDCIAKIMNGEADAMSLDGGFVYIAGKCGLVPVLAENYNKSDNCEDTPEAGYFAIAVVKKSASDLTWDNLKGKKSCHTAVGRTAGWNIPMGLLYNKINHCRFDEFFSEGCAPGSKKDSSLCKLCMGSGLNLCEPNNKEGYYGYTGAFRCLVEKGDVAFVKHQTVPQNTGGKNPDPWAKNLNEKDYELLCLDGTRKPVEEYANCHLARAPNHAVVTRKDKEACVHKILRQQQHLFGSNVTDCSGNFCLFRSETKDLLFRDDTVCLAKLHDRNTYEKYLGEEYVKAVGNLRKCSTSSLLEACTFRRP

Kd [1]: 89.3 µM
Compound: CO[C@H]1[C@H](O)[C@@H](O)[C@H](Oc2cc(C3CC(=O)c4cc(C)ccc4O3)ccc2O)O[C@@H]1CO (stereo partly drawn) [MFA, 4′-hydroxy-6-methylflavanone 3′-O-β-D-(4′’-O-methyl)-glucopyranoside]

Kd [2]: 68 µM
Compound: CO[C@H]1[C@H](O)[C@@H](O)[C@H](Oc2cc(C3CC(=O)c4cc(CO)ccc4O3)ccc2O)O[C@@H]1CO (stereo partly drawn) [MFB, 4′-hydroxy-6-hydroxymethylflavanone 3′-O-β-D-(4′’-O-methyl)-glucopyranoside]

Kd [3]: 35.8 µM
Compound: CO[C@H]1[C@H](O)[C@@H](O)[C@H](OCc2ccc3c(c2)C(=O)CC(c2ccc(O)cc2)O3)O[C@@H]1CO (stereo partly drawn) [MFC, 4′-hydroxyflavanone 6-methylene-O-β-D-(4′’-O-methyl)-glucopyranoside]
